Like-named read-outs stand apart in the source and are kept apart here.
Experiments:
[1] = biological target: T1, DYRK1A(h) (Homo sapiens, UniProt Q13627); assay: In vitro enzymatic assay (Eurofins, radiometric 33P-ATP); type: biochemical; conditions: for inhibition at 10 µM / % inhibition at 10 μM: DYRK1A; for IC50: read-out: IC50 values against DYRK1A
T1 construct: purchased Eurofins Scientific Inc. Korea (contract assay service)
Method: Enzymatic assays were performed by Eurofins Scientific Inc. Korea (Brussels, Belgium). […] The reaction was initiated by the addition of the MgATP mix. After incubation for 40 min at room temperature, the reaction was stopped by the addition of 3% phosphoric acid solution. Then, 10 μL of the reaction was then spotted onto a P30 filtermat and washed three times for 5 min in 75 mM phosphoric acid and once in methanol prior to drying and scintillation counting. […] All assays were performed in duplicate, and the average IC50 value was reported.

[2] = tested on: GSK3β; conditions: read-out: IC50 against GSK3β, cited from earlier work
[3] = tested on: DYRK1A; parameters: method as in PMID 30170319; conditions: staurosporine; read-out: IC50 against DYRK1A; cited from earlier work
[4] = as summarised in the discussion

inhibition at 10 µM [1] [%] | IC50 ([1]; duplicate, average) [µM] | Compound | also measured
76 | 5.83 | O=C(O)c1cccc(Nc2nc(-c3ccccc3)c3cc(Br)ccc3n2)c1 [Compound 6, 3-((6-bromo-4-phenylquinazolin-2-yl)amino)benzoic acid] | 
82 | 3.25 | O=C(O)c1cc2cc(Br)ccc2s1 [Compound 3, 5-bromobenzo[b]thiophene-2-carboxylic acid] | IC50 [1, 4]: ~3.2 µM
71 | 2.91 | N#Cc1ccc2[nH]c(O)c(-c3ccc(CN4CCOCC4)cn3)c2c1 [AZD1080, 2-hydroxy-3-(5-(morpholinomethyl)pyridin-2-yl)-1H-indole-5-carbonitrile, reference compound] | IC50 ([2]; AZD1080): 0.031 µM
< 40 |  | COc1ccc(Nc2cc(C)nc(Nc3ccc(OC)cc3)n2)cc1 [Compound 5, N^2,N^4-bis(4-methoxyphenyl)-6-methylpyrimidine-2,4-diamine] | % inhibition at 10 μM [1]: 27%
71 | 3.24 | N#Cc1cccc2sc(C(=O)O)cc12 [Compound 4, 4-cyanobenzo[b]thiophene-2-carboxylic acid] | IC50 [1, 4]: ~3.2 µM
< 40 |  | COc1ccc(Nc2ncc(F)c(N3CCOCC3)n2)cc1 [Compound 7, 5-fluoro-N-(4-methoxyphenyl)-4-morpholinopyrimidin-2-amine] | % inhibition at 10 μM [1]: 33%
58 | 5.71 | COC(=O)c1sc2ncnc(Nc3cccc(OC)c3)c2c1C [Compound 2, methyl 4-((3-methoxyphenyl)amino)-5-methylthieno (2,3-d)pyrimidine-6-carboxylate] | 
70 | 6.77 | CC(C)c1nn(C)cc1-c1nc2c(N3CCN(Cc4cccnc4)CC3)c(Br)cnc2[nH]1 [Compound 1, 6-bromo-2-(3-isopropyl-1-methyl-1H-pyrazol-4-yl)-7-(4-(pyridin-3-ylmethyl)piperazin-1-yl)-3H-imidazo(4,5-b)pyridine] | 
